Laboratory results published in US10660877B2 (BRISTOL-MYERS SQUIBB COMPANY, priority 2016, dated 2020).

Columns and labels:
human TLR7 = human TLR7 (Homo sapiens (Human), UniProt Q9NYK1); assay: TLR7 inhibition reporter assay (HEK-Blue cells, SEAP reporter, gardiquimod stimulation); type: cell-based; settings: HEK-Blue cells overexpressing human TLR7, gardiquimod 7.5 μM
human TLR9 = human TLR9 (Homo sapiens (Human), UniProt Q9NR96); assay: TLR9 inhibition reporter assay (HEK-Blue cells, SEAP reporter, ODN2006 stimulation); settings: read-out: TLR9 IC50, HEK-Blue cells overexpressing human TLR9, ODN2006 5 nM;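 further: compounds tested over 0.05 nM to 50 µM, 22 h incubation, inhibition taken as SEAP signal drop from agonist plus DMSO wells toward a known inhibitor control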
human TLR9, sequence (Q9NR96 26-1032): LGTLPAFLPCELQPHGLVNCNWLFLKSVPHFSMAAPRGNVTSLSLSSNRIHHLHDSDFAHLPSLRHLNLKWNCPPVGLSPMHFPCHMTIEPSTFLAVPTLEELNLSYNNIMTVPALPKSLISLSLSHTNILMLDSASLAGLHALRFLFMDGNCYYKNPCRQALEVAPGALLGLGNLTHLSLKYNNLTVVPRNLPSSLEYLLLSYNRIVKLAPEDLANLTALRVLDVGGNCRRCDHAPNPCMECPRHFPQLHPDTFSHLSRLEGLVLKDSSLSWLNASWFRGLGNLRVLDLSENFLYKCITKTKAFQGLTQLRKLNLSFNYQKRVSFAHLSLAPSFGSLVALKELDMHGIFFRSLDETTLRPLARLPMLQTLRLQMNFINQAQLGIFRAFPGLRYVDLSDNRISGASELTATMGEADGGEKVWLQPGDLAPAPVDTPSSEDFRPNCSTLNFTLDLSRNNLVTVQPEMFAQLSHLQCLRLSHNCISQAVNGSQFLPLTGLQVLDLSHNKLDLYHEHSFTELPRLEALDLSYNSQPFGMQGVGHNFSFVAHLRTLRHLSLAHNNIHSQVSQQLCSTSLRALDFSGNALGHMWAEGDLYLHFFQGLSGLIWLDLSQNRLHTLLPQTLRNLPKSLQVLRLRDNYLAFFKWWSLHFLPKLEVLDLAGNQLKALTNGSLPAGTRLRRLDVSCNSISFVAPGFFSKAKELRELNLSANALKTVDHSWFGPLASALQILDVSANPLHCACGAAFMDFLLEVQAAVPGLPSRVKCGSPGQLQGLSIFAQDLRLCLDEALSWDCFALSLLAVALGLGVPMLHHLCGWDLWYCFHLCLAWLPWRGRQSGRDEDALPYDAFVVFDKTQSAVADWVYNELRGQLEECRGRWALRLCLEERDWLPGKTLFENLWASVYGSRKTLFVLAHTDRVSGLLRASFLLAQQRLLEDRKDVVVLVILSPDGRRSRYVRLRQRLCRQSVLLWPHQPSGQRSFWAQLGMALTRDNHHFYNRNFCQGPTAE

human TLR8 = human TLR8 (Homo sapiens (Human), UniProt Q9NR97); assay: TLR8 inhibition reporter assay (HEK-Blue cells, SEAP reporter, R848 stimulation); settings: read-out: TLR8 IC50, HEK-Blue cells overexpressing human TLR8, R848 15.9 μM;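 further: compounds tested from 0.05 nM to 50 µM, 22 h at 37 °C, SEAP measured with HEK-Blue Detection, inhibition relative to agonist plus DMSO versus a known inhibitor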
human TLR8, sequence (Q9NR97 27-1041): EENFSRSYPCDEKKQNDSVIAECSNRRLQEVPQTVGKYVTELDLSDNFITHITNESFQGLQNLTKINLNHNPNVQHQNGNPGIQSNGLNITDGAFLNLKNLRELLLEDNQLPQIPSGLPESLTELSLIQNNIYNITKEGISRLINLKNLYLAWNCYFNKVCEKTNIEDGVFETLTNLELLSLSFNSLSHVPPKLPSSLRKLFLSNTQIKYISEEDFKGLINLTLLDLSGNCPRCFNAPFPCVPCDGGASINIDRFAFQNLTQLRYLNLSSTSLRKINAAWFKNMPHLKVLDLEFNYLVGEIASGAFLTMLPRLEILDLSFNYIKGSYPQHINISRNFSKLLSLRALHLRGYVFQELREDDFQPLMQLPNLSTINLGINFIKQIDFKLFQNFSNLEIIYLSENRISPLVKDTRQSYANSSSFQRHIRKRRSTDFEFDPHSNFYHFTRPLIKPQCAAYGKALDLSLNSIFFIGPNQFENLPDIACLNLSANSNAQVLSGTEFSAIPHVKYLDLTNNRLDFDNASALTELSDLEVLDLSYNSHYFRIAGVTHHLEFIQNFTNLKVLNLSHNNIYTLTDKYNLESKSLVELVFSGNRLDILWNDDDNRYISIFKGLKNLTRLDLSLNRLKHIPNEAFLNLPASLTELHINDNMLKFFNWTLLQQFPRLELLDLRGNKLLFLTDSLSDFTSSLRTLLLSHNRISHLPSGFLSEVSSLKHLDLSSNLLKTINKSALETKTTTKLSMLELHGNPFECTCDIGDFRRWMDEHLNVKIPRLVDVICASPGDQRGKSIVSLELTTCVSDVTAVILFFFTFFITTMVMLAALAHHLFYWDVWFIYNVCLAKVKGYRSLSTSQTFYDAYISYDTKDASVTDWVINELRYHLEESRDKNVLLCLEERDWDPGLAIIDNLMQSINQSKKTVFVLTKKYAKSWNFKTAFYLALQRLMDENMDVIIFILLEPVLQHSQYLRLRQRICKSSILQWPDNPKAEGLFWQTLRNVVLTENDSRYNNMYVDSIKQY

human TLR7, sequence (Q9NYK1 27-1049): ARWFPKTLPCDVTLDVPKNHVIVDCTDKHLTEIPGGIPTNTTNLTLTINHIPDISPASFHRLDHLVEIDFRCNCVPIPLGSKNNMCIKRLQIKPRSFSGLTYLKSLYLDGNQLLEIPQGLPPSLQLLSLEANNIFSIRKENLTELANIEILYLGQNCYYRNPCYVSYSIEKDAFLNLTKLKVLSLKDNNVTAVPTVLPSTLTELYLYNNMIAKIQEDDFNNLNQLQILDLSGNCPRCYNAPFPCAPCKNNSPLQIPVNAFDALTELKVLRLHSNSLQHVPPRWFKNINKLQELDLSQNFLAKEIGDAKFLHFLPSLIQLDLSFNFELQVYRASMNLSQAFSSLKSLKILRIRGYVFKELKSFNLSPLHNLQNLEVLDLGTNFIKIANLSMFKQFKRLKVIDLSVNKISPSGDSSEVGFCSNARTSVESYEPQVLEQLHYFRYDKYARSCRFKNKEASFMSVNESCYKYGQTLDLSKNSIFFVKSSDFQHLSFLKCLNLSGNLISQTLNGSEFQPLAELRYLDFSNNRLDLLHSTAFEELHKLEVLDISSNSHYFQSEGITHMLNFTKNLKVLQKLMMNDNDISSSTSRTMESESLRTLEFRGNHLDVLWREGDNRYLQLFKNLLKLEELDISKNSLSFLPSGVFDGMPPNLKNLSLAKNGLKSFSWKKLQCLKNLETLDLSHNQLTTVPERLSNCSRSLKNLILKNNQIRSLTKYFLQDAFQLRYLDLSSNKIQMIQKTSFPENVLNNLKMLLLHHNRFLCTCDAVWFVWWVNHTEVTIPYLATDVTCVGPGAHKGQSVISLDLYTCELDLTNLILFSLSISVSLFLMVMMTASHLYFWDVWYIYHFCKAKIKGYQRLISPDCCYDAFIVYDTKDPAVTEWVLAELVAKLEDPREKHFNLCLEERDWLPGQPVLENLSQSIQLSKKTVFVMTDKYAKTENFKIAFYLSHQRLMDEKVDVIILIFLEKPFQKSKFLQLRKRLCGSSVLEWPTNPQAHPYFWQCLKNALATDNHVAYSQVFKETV

Row | Compound | IC50 (human TLR7) [µM] | IC50 (human TLR9) [µM] | IC50 (human TLR8) [µM]
1 | CC(=O)Nc1ccc(S(=O)(=O)N2CCC(c3ccc4[nH]c(-c5ccnc(C)c5)c(C(C)C)c4c3)CC2)cc1 [Example 552, N-(4-((4-(3-isopropyl-2-(2-methylpyridin-4-yl)-1H-indol-5-yl)piperidin-1-yl)sulfonyl)phenyl)acetamide] | 0.13 | > 50 | 0.111
2 | Cc1cc(-c2[nH]c3ccc(C4CCN(S(=O)(=O)c5cn(C)c(C)n5)CC4)cc3c2C(C)C)ccn1 [Example 553, 5-(1-((1,2-dimethyl-1H-imidazol-4-yl)sulfonyl)piperidin-4-yl)-3-isopropyl-2-(2-methylpyridin-4-yl)-1H-indole] | 0.0742 | 31.6 | 0.0843
3 | Cc1ccc(S(=O)(=O)N2CCC(c3ccc4[nH]c(-c5ccnc(C)c5)c(C(C)C)c4c3)CC2)cc1 [Example 554] | 0.441 | > 50 | 1.07
4 | Cc1cc(-c2[nH]c3ccc(C4CCN(S(=O)(=O)C5CC5)CC4)cc3c2C(C)C)ccn1 [Example 555, 5-(1-(cyclopropylsulfonyl)piperidin-4-yl)-3-isopropyl-2-(2-methylpyridin-4-yl)-1H-indole] | 0.0349 | > 50 | 0.0921
5 | Cc1cc(-c2[nH]c3ccc(C4CCN(S(=O)(=O)Cc5ccccc5)CC4)cc3c2C(C)C)ccn1 [Example 556, 5-(1-(benzylsulfonyl)piperidin-4-yl)-3-isopropyl-2-(2-methylpyridin-4-yl)-1H-indole] | 0.22 | > 50 | 0.731
6 | Cc1ccc(OC(=O)N2CCC(c3ccc4[nH]c(-c5ccnc(C)c5)c(C(C)C)c4c3)CC2)cc1 [Example 557, p-Tolyl 4-(3-isopropyl-2-(2-methylpyridin-4-yl)-1H-indol-5-yl)piperidine-1-carboxylate] | 1.53 | 6.04 | 3.25
7 | Cc1cc(-c2[nH]c3ccc(C4CCN(C(=O)OCC(C)C)CC4)cc3c2C(C)C)ccn1 [Example 558, isobutyl 4-(3-isopropyl-2-(2-methylpyridin-4-yl)-1H-indol-5-yl)piperidine-1-carboxylate] | 3.4 | 15 | 1.84
8 | Cc1cc(-c2[nH]c3ccc(C4CCN(C(=O)OC(C)C)CC4)cc3c2C(C)C)ccn1 [Example 559, isopropyl 4-(3-isopropyl-2-(2-methylpyridin-4-yl)-1H-indol-5-yl)piperidine-1-carboxylate] | 0.5 | 13.5 | 0.878
9 | CCOC(=O)N1CCC(c2ccc3[nH]c(-c4ccnc(C)c4)c(C(C)C)c3c2)CC1 [Example 560, ethyl 4-(3-isopropyl-2-(2-methylpyridin-4-yl)-1H-indol-5-yl)piperidine-1-carboxylate] | 0.247 | 10.4 | 0.607
10 | COCCOC(=O)N1CCC(c2ccc3[nH]c(-c4ccnc(C)c4)c(C(C)C)c3c2)CC1 [Example 561, 2-methoxyethyl 4-(3-isopropyl-2-(2-methylpyridin-4-yl)-1H-indol-5-yl)piperidine-1-carboxylate] | 0.202 | 43.9 | 0.363
11 | COC(=O)N1CCC(c2ccc3[nH]c(-c4ccnc(C)c4)c(C(C)C)c3c2)CC1 [Example 562, methyl 4-(3-isopropyl-2-(2-methylpyridin-4-yl)-1H-indol-5-yl) piperidine-1-carboxylate] | 0.287 | > 50 | 1.4
12 | Cc1cc(-c2[nH]c3ccc(C4CCN(C(=O)C5CCN(C(C)C)CC5)CC4)cc3c2C(C)C)ccn1 [Example 563, (4-(3-isopropyl-2-(2-methylpyridin-4-yl)-1H-indol-5-yl)piperidin-1-yl)(1-isopropylpiperidin-4-yl)methanone] | 0.0165 | 1.15 | 0.0189
13 | Cc1cc(-c2[nH]c3ccc(C4CCN(C(=O)[C@@H](N)CCCNC(N)=O)CC4)cc3c2C(C)C)ccn1 [Example 564, (S)-1-(4-amino-5-(4-(3-isopropyl-2-(2-methylpyridin-4-yl)-1H-indol-5-yl)piperidin-1-yl)-5-oxopentyl)urea] | 0.202 | 6.56 | 0.0801
14 | Cc1cc(-c2[nH]c3ccc(C4CCN(C(=O)C5CC(=O)N(C)C5)CC4)cc3c2C(C)C)ccn1 (stereo not drawn) [Example 566, 4-(4-(3-isopropyl-2-(2-methylpyridin-4-yl)-1H-indol-5-yl)piperidine-1-carbonyl)-1-methylpyrrolidin-2-one] | 0.0788 | > 50 | 0.118
15 | Cc1cc(-c2[nH]c3ccc(C4CCN(C(=O)[C@H]5C[C@H]6CC[C@@H](C5)N6)CC4)cc3c2C(C)C)ccn1 [Example 580, ((1R,3r,5S)-8-azabicyclo[3.2.1]octan-3-yl)(4-(3-isopropyl-2-(2-methylpyridin-4-yl)-1H-indol-5-yl)piperidin-1-yl)methanone] | 0.0672 | 0.508 | 0.0537

The remaining lines, values ahead:

Row | IC50 (human TLR7) [µM] | IC50 (human TLR9) [µM] | IC50 (human TLR8) [µM] | Compound
16 | 0.0267 | 0.876 | 0.0229 | Cc1cc(-c2[nH]c3ccc(C4CCN(C(=O)C5CCN(Cc6ccccc6)CC5)CC4)cc3c2C(C)C)ccn1 [Example 567, (1-benzylpiperidin-4-yl)(4-(3-isopropyl-2-(2-methylpyridin-4-yl)-1H-indol-5-yl)piperidin-1-yl)methanone]
17 | 0.0119 | 0.572 | 0.0136 | Cc1cc(-c2[nH]c3ccc(C4CCN(C(=O)CCC5CCNCC5)CC4)cc3c2C(C)C)ccn1 [Example 568, 1-(4-(3-isopropyl-2-(2-methylpyridin-4-yl)-1H-indol-5-yl)piperidin-1-yl)-3-(piperidin-4-yl)propan-1-one]
18 | 0.0144 | 0.912 | 0.015 | Cc1cc(-c2[nH]c3ccc(C4CCN(C(=O)[C@H]5CCC[C@@]5(C)N)CC4)cc3c2C(C)C)ccn1 [Example 569, ((1S,2R)-2-amino-2-methylcyclopentyl)(4-(3-isopropyl-2-(2-methylpyridin-4-yl)-1H-indol-5-yl)piperidin-1-yl)methanone]
19 | 0.0131 | 0.971 | 0.012 | CNCCC(=O)N1CCC(c2ccc3[nH]c(-c4ccnc(C)c4)c(C(C)C)c3c2)CC1 [Example 570, 1-(4-(3-isopropyl-2-(2-methylpyridin-4-yl)-1H-indol-5-yl)piperidin-1-yl)-3-(methylamino)propan-1-one]
20 | 0.0051 | 0.692 | 0.0186 | Cc1cc(-c2[nH]c3ccc(C4CCN(C(=O)C5CCNC5)CC4)cc3c2C(C)C)ccn1 (stereo not drawn) [Example 572, (4-(3-isopropyl-2-(2-methylpyridin-4-yl)-1H-indol-5-yl)piperidin-1-yl)(pyrrolidin-3-yl)methanone]
21 | 0.0129 | 0.379 | 0.0339 | Cc1cc(-c2[nH]c3ccc(C4CCN(C(=O)C5CCNCC5)CC4)cc3c2C(C)C)ccn1 [Example 573, (4-(3-isopropyl-2-(2-methylpyridin-4-yl)-1H-indol-5-yl)piperidin-1-yl)(piperidin-4-yl)methanone]
22 | 0.0829 | 0.851 | 0.0156 | Cc1cc(-c2[nH]c3ccc(C4CCN(C(=O)[C@@H](N)Cc5c[nH]cn5)CC4)cc3c2C(C)C)ccn1 [Example 574, (S)-2-amino-3-(1H-imidazol-4-yl)-1-(4-(3-isopropyl-2-(2-methylpyridin-4-yl)-1H-indol-5-yl)piperidin-1-yl)propan-1-one]
23 | 0.034 | 1.06 | 0.0185 | Cc1cc(-c2[nH]c3ccc(C4CCN(C(=O)C5CCN(Cc6ccccc6)C5)CC4)cc3c2C(C)C)ccn1 (stereo not drawn) [Example 575, (1-benzylpyrrolidin-3-yl)(4-(3-isopropyl-2-(2-methylpyridin-4-yl)-1H-indol-5-yl)piperidin-1-yl)methanone]
24 | 0.0151 | 0.731 | 0.0241 | Cc1cc(-c2[nH]c3ccc(C4CCN(C(=O)[C@@H]5CCC[C@H](N)C5)CC4)cc3c2C(C)C)ccn1 [Example 576, ((1R,3S)-3-aminocyclohexyl)(4-(3-isopropyl-2-(2-methylpyridin-4-yl)-1H-indol-5-yl)piperidin-1-yl)methanone]
25 | 0.121 | 8.13 | 0.0584 | Cc1cc(-c2[nH]c3ccc(C4CCN(C(=O)[C@@H](N)CCCN)CC4)cc3c2C(C)C)ccn1 [Example 577, (S)-2,5-diamino-1-(4-(3-isopropyl-2-(2-methylpyridin-4-yl)-1H-indol-5-yl)piperidin-1-yl)pentan-1-one]
26 | 0.0071 | 0.722 | 0.0057 | Cc1cc(-c2[nH]c3ccc(C4CCN(C(=O)CCN(C)C)CC4)cc3c2C(C)C)ccn1 [Example 578, 3-(dimethylamino)-1-(4-(3-isopropyl-2-(2-methylpyridin-4-yl)-1H-indol-5-yl)piperidin-1-yl)propan-1-one]
27 | 0.201 | 4.36 | 0.098 | Cc1cc(-c2[nH]c3ccc(C4CCN(C(=O)[C@@H](N)CCCCN)CC4)cc3c2C(C)C)ccn1 [Example 579, (S)-2,6-diamino-1-(4-(3-isopropyl-2-(2-methylpyridin-4-yl)-1H-indol-5-yl)piperidin-1-yl)hexan-1-one]
28 | 0.0106 | 0.967 | 0.0069 | Cc1cc(-c2[nH]c3ccc(C4CCN(C(=O)[C@@H]5C[C@H](O)CCN5)CC4)cc3c2C(C)C)ccn1 [Example 581, ((2S,4R)-4-hydroxypiperidin-2-yl)(4-(3-isopropyl-2-(2-methylpyridin-4-yl)-1H-indol-5-yl)piperidin-1-yl)methanone]
